US20080255243A1, “Stat3 as a theranostic indicator” (priority 2007, published 2008)

Key:
[1] = system: Rh30 alveolar cells xenograft; assay: Rh30 alveolar rhabdomyosarcoma orthotopic mouse xenograft, tumor growth; assay type: in vivo; details: SCID-beige mice, 20 mg/kg IP every 3 days for 30 days, vs vehicle, n=8, p=0.0002 (Student's t-test)
Protocol: (§1) 2×10^6 cells in 0.2 mL total volume per mouse, from either Rh30 alveolar or RD embryonal cell lines, were injected orthotopically into the left hind leg gastrocnemius muscle of a SCID beige murine model. After 1 week, mice were assigned to control (n=8) or CCI-779 treatment groups (n=8). […] (FIG. 6C) CCI-779 was administered at 20 mg/kg/IP every 3 days for 30 days. Protein extracts from Rh30 and RD mouse xenograft tumors or uninvolved muscle were treated with CCI-779 or vehicle for 30 days and analyzed by Western blotting for S6 and 4EBP1 phosphorylation. […] 5. In vivo xenograft tumor model. Animal studies were performed in accordance with guidelines of the National Institutes of Health Animal Care and Use Committee. Female 4-6 week old beige-SCID mice were purchased from Charles River Laboratories (Wilmington, Mass.). […] Tumor growth was measured every 3 days with calipers, and tumor volume was calculated by the formula V (mm^3)=a×b^2, where a is the longest tumor axis, and b is the shortest tumor axis. […] Suppression of the mTOR pathway was monitored by measuring the phosphorylation of 4EBP1 and S6 ribosomal protein, which are well-established downstream targets of mTOR.

[2] = system: RD embryonal cells xenograft; assay: RD embryonal rhabdomyosarcoma orthotopic mouse xenograft, tumor growth; assay type: in vivo; details: SCID-beige mice, 20 mg/kg IP every 3 days for 30 days, vs vehicle, n=8, p=0.00008 (Student's t-test)
Protocol: as §1

[3] = system: phosphorylation of 4EBP1 and S6 ribosomal protein (mTOR downstream targets); assay: Western blotting of xenograft tumor and uninvolved muscle extracts for phosphorylation of mTOR downstream targets; assay type: in vivo, mouse; details: for phosphorylation of 4EBP1 and S6 (mTOR downstream targets): 20 mg/kg IP every 3 days for 30 days
Protocol: 2×10^6 cells in 0.2 mL total volume per mouse, from either Rh30 alveolar or RD embryonal cell lines, were injected orthotopically into the left hind leg gastrocnemius muscle of a SCID beige murine model. After 1 week, mice were assigned to control (n=8) or CCI-779 treatment groups (n=8). […] (FIG. 6C) CCI-779 was administered at 20 mg/kg/IP every 3 days for 30 days. Protein extracts from Rh30 and RD mouse xenograft tumors or uninvolved muscle were treated with CCI-779 or vehicle for 30 days and analyzed by Western blotting for S6 and 4EBP1 phosphorylation. […] 5. In vivo xenograft tumor model. Animal studies were performed in accordance with guidelines of the National Institutes of Health Animal Care and Use Committee. Female 4-6 week old beige-SCID mice were purchased from Charles River Laboratories (Wilmington, Mass.). Two million viable cells harvested from mid confluent cultures of either Rh30 alveolar or RD embryonal cells in 0.2 ml diluent (5% Tween-80, 5% polyethylene glycol-400 (Sigma, St. Louis, Mo.)) were injected orthotopically into the gastrocnemius muscle in the left hind leg, and after 1 week mice were randomly assigned to control (n=8) or CCI-779 treatment groups (n=8). Mice were treated IP every 3 days for 30 consecutive days with 20 mg/kg/IP of CCI-779 (Developmental Therapeutics Program, National Cancer Institute and Wyeth, Madison, N.J.) or vehicle alone. Tumor growth was measured every 3 days with calipers, and tumor volume was calculated by the formula V (mm^3)=a×b^2, where a is the longest tumor axis, and b is the shortest tumor axis. All mice were sacrificed by asphyxiation with CO2 and underwent necropsy for confirmation of tumor growth. Tumors were excised and snap frozen at -80° C. until analysis. […] Suppression of the mTOR pathway was monitored by measuring the phosphorylation of 4EBP1 and S6 ribosomal protein, which are well-established downstream targets of mTOR.

CO[C@H]1C[C@@H]2CC[C@@H](C)[C@@](O)(O2)C(=O)C(=O)N2CCCC[C@H]2C(=O)O[C@H]([C@H](C)C[C@@H]2CC[C@@H](OC(=O)C(C)(CO)CO)[C@H](OC)C2)CC(=O)[C@H](C)/C=C(\C)[C@@H](O)[C@@H](OC)C(=O)[C@H](C)C[C@H](C)/C=C/C=C/C=C/1C [CCI-779, 40-[3-hydroxy(hydroxymethyl)methylpropanoate]-rapamycin]
tumor growth / tumor volume measured with calipers [1]: profoundly reduced the growth
tumor growth / tumor volume measured with calipers ([1]; 20 mg/kg): less in the CCI-779 treatment group as compared to the vehicle alone
tumor growth / tumor volume measured with calipers [2]: profoundly reduced the growth
tumor growth / tumor volume measured with calipers ([2]; 20 mg/kg): less in the CCI-779 treatment group as compared to the vehicle alone
phosphorylation of 4EBP1 and S6 (mTOR downstream targets) ([3]; RD embryonal xenograft derived tumors): inhibited the phosphorylation of these downstream targets
phosphorylation of 4EBP1 and S6 (mTOR downstream targets) ([3]; Rh30 alveolar xenograft derived tumors): inhibited the phosphorylation of these downstream targets
phosphorylation of mTOR pathway substrates pS6 Ser235/236 and 4EBP1 Thr70 ([3]; time dependent, non-involved muscle and tumor tissue, compared to actin (FIG. 6A)): inhibited phosphorylation of mTOR pathway substrates
